Several values for one entry are separate records, joined by “and”; a condition that tells them apart may be missing. Equal values may be shown once.
Assays:
H1975 cells = assay: CCK-8 antiproliferation assay, H1975; conditions: for IC50: NCI-H1975, 48 h, read-out: IC50 (μM) H1975, CCK-8, 48 h, average ± SD of three independent experiments; for Inhibitory efficacy: H1975 cells
A549 cells = assay: CCK-8 antiproliferation assay, A549; conditions: for Inhibitory efficacy: A549 cells; for IC50: A549, 48 h, read-out: IC50 (μM) A549, CCK-8, 48 h, average ± SD of three independent experiments
H460 cells = assay: CCK-8 antiproliferation assay, H460; conditions: for Inhibitory efficacy: H460 cells; for IC50: NCI-H460, 48 h, read-out: IC50 (μM) H460, CCK-8, 48 h, average ± SD of three independent experiments
Procedure: (§1) The compounds were dissolved in DMSO to make a 20 μM stock solution and diluted to the concentration of working solutions with complete growth medium before administration.
(§2) Cells were seeded in 96-well plates: 3,000–5,000 cells/well in 100 ul. One day after seeding, the test compounds at concentration between 1.0 and 16.0 μ M or 0.1% DMSO (as control) were added to cells in triplicate. 48 h later, CCK-8 was added and incubated the plate for 1–4 h in the incubator. The absorbance at 450 nm were measured using a microplate reader (Bio-Tek).

PC-9 cells = assay: CCK-8 antiproliferation assay, PC-9; conditions: for IC50: PC-9, 48 h, read-out: IC50 (μM) PC-9; for Inhibitory efficacy: single repeats (Repeat 1-3), given as fraction
Procedure: as §1, §2

wild-type EGFR = wild-type EGFR (Homo sapiens, UniProt P00533); assay: EGFR kinase assay (ELISA); conditions: for IC50: IC50 (μM) EGFR, ELISA, 3 μmol/L ATP; for A450: raw ELISA absorbance
[1] = 2uM, given as fraction, Repeat 1-3
[2] = 4uM, given as fraction, Repeat 1-3
[3] = 8uM, given as fraction, Repeat 1-3
[4] = 16uM, given as fraction, Repeat 1-3
[5] = Homo sapiens, A549, read-out: Inhibitory efficacy, A549 cells, 4uM, given as fraction, Repeat 1-3
[6] = Homo sapiens, A549, read-out: Inhibitory efficacy, A549 cells, 16uM, given as fraction, Repeat 1-3
[7] = 1uM, given as fraction, Repeat 1-3
[8] = Homo sapiens, NCI-H460, read-out: Inhibitory efficacy, H460 cells, 2uM, given as fraction, Repeat 1-3
[9] = Homo sapiens, NCI-H460, read-out: Inhibitory efficacy, H460 cells, 8uM, given as fraction, Repeat 1-3
[10] = Homo sapiens, NCI-H460, read-out: Inhibitory efficacy, H460 cells, 16uM, given as fraction, Repeat 1-3

Chain of wild-type EGFR (P00533 25-1210): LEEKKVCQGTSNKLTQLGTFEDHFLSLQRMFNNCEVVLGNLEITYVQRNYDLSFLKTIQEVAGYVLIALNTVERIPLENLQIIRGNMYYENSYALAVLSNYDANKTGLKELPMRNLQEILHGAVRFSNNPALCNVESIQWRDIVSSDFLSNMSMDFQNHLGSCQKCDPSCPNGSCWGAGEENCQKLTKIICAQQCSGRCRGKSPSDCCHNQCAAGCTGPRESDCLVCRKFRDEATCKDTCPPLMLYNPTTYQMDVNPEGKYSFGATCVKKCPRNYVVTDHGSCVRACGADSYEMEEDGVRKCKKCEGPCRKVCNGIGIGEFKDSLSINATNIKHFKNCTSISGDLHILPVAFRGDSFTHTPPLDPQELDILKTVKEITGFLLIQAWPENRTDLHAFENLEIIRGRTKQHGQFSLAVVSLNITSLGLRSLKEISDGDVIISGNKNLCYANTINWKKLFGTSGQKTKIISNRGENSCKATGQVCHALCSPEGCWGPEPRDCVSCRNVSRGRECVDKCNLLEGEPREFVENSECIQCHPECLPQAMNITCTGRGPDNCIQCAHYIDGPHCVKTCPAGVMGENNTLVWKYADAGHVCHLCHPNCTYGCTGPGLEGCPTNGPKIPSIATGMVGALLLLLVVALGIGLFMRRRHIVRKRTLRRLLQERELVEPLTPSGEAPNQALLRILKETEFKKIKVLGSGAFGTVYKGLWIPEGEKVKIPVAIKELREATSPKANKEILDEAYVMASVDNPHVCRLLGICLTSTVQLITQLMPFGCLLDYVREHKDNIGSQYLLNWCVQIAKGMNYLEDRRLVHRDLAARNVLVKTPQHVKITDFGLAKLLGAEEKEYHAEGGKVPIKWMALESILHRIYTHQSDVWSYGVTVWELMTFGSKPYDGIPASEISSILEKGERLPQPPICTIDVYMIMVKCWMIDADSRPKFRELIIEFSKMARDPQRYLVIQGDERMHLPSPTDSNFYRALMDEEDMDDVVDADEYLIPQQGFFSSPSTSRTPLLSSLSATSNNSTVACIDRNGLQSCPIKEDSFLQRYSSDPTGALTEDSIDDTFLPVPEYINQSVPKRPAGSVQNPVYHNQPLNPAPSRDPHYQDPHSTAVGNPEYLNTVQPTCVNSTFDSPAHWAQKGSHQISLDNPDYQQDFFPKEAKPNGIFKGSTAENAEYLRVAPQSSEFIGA

Structure (SMILES): COCCOc1cc2ncnc(Nc3cccc(-c4cn(-c5ccccc5F)nn4)c3)c2cc1OCCOC [e6, [6,7-Bis-(2-methoxy-ethoxy)-quinazolin-4-yl]-{3-[1-(2-fluoro-phenyl)-1H-[1,2,3]triazol-4-yl]-phenyl}-amine]
- IC50 (H1975 cells; Homo sapiens): 16.5 ± 3.53 µM
- Inhibitory efficacy (A549 cells; [1]): 0.2224 and 0.3459
- Inhibitory efficacy (A549 cells; [2]): 0.572 and 0.5248
- Inhibitory efficacy (A549 cells; [3]): 0.6524 and 0.6253
- Inhibitory efficacy (A549 cells; [4]): 0.6986 and 0.7076
- IC50 (A549 cells; Homo sapiens): 4.88 ± 0.54 µM
- inhibition at 2 µM (A549 cells; Homo sapiens, A549, read-out: Inhibitory efficacy, A549 cells, 2uM, given as fraction, Repeat 1-3): 25.8%
- inhibition at 4 µM (A549 cells; [5]): 45.7%
- inhibition at 8 µM (A549 cells; Homo sapiens, A549, read-out: Inhibitory efficacy, A549 cells, 8uM, given as fraction, Repeat 1-3): 63.5%
- inhibition at 16 µM (A549 cells; [6]): 69.8%
- melting point: 83 to 86 °C
- Inhibitory efficacy (H460 cells; [7]): 0.0882 and 0.09728
- Inhibitory efficacy (H460 cells; [1]): 0.2957 and 0.2477
- Inhibitory efficacy (H460 cells; [2]): 0.4663 and 0.4358
- Inhibitory efficacy (H460 cells; [3]): 0.4163 and 0.4008
- Inhibitory efficacy (H460 cells; [4]): 0.4274 and 0.4066
- IC50 (H460 cells; Homo sapiens): 18.5 ± 2 µM
- inhibition at 1 µM (H460 cells; Homo sapiens, NCI-H460, read-out: Inhibitory efficacy, H460 cells, 1uM, given as fraction, Repeat 1-3): 14.7%
- inhibition at 2 µM (H460 cells; [8]): 33.2%
- inhibition at 4 µM (H460 cells; Homo sapiens, NCI-H460, read-out: Inhibitory efficacy, H460 cells, 4uM, given as fraction, Repeat 1-3): 39.8%
- inhibition at 8 µM (H460 cells; [9]): 42.1%
- inhibition at 16 µM (H460 cells; [10]): 44.7%
- IC50 (PC-9 cells; Homo sapiens): 3.27 ± 0.14 µM
- inhibition at 2 µM (PC-9 cells; Homo sapiens, PC-9, read-out: Inhibitory efficacy, PC-9, 2uM, single repeats (Repeat 1-3), given as fraction): 37.3%
- inhibition at 4 µM (PC-9 cells; Homo sapiens, PC-9, read-out: Inhibitory efficacy, PC-9, 4uM, single repeats (Repeat 1-3), given as fraction): 61.7%
- inhibition at 8 µM (PC-9 cells; Homo sapiens, PC-9, read-out: Inhibitory efficacy, PC-9, 8uM, single repeats (Repeat 1-3), given as fraction): 77.6%
- inhibition at 16 µM (PC-9 cells; Homo sapiens, PC-9, read-out: Inhibitory efficacy, PC-9, 16uM, single repeats (Repeat 1-3), given as fraction): 85%
- Inhibitory efficacy (PC-9 cells; PC-9, 2uM, 2 µM): 0.401 and 0.3548
- Inhibitory efficacy (PC-9 cells; PC-9, 4uM, 4 µM): 0.5712 and 0.6591
- Inhibitory efficacy (PC-9 cells; PC-9, 8uM, 8 µM): 0.783 and 0.7626
- Inhibitory efficacy (PC-9 cells; PC-9, 16uM, 16 µM): 0.8422 and 0.8588
- inhibition at 0.0003 µM (wild-type EGFR; 0.3 nM, duplicate wells, calculated from A450): 17.1%
- Inhibition (wild-type EGFR; 0.3 nM, duplicate wells, calculated from A450, 0.0003 µM): 10.6583
- inhibition at 0.003 µM (wild-type EGFR; 3 nM, duplicate wells, calculated from A450): 21.5%
- Inhibition (wild-type EGFR; 3 nM, duplicate wells, calculated from A450, 0.003 µM): 11.5987
- inhibition at 0.03 µM (wild-type EGFR; 30 nM, duplicate wells, calculated from A450): 26.3%
- Inhibition (wild-type EGFR; 30 nM, duplicate wells, calculated from A450, 0.03 µM): 21.0031
- inhibition at 0.3 µM (wild-type EGFR; 300 nM, duplicate wells, calculated from A450): 29.7%
- Inhibition (wild-type EGFR; 300 nM, duplicate wells, calculated from A450, 0.3 µM): 21.3166
- inhibition at 3 µM (wild-type EGFR; 3000 nM, duplicate wells, calculated from A450): 70.9%
- Inhibition (wild-type EGFR; 3000 nM, duplicate wells, calculated from A450, 3 µM): 70.8464
- inhibition at 30 µM (wild-type EGFR; 30000 nM, duplicate wells, calculated from A450): 91.8%
- Inhibition (wild-type EGFR; 30000 nM, duplicate wells, calculated from A450, 30 µM): 93.4169
- IC50 (wild-type EGFR): 0.69 µM

Structure (SMILES): CCOc1cccc(-n2cc(-c3cccc(Nc4ncnc5cc(OCCOC)c(OCCOC)cc45)c3)nn2)c1 [e14, [6,7-Bis-(2-methoxy-ethoxy)-quinazolin-4-yl]-{3-[1-(3-ethoxy-phenyl)-1H-[1,2,3]triazol-4-yl]-phenyl}-amine]
- Inhibitory efficacy (H1975 cells; [7]): 0.1721 and 0.1925
- Inhibitory efficacy (H1975 cells; [1]): 0.2391 and 0.2224
- Inhibitory efficacy (H1975 cells; [2]): 0.4814 and 0.4311
- Inhibitory efficacy (H1975 cells; [3]): 0.5466 and 0.5764
- Inhibitory efficacy (H1975 cells; [4]): 0.5969 and 0.5615
- IC50 (H1975 cells; Homo sapiens): 7.5 ± 0.49 µM
- inhibition at 1 µM (H1975 cells; Homo sapiens, NCI-H1975, read-out: Inhibitory efficacy, H1975 cells, 1uM, given as fraction, Repeat 1-3): 20.6%
- inhibition at 2 µM (H1975 cells; Homo sapiens, NCI-H1975, read-out: Inhibitory efficacy, H1975 cells, 2uM, given as fraction, Repeat 1-3): 28.4%
- inhibition at 4 µM (H1975 cells; Homo sapiens, NCI-H1975, read-out: Inhibitory efficacy, H1975 cells, 4uM, given as fraction, Repeat 1-3): 34%
- inhibition at 8 µM (H1975 cells; Homo sapiens, NCI-H1975, read-out: Inhibitory efficacy, H1975 cells, 8uM, given as fraction, Repeat 1-3): 58.6%
- inhibition at 16 µM (H1975 cells; Homo sapiens, NCI-H1975, read-out: Inhibitory efficacy, H1975 cells, 16uM, given as fraction, Repeat 1-3): 57.3%
- Inhibitory efficacy (A549 cells; [7]): 0.06697 and 0.1106
- Inhibitory efficacy (A549 cells; [2]): 0.2585 and 0.1473
- Inhibitory efficacy (A549 cells; [4]): 0.1909 and 0.2764
- IC50 (A549 cells; Homo sapiens): > 100 µM
- inhibition at 1 µM (A549 cells; Homo sapiens, A549, read-out: Inhibitory efficacy, A549 cells, 1uM, given as fraction, Repeat 1-3): 8.24%
- inhibition at 4 µM (A549 cells; [5]): 25.4%
- inhibition at 16 µM (A549 cells; [6]): 26.4%
- melting point: 110 to 114 °C
- Inhibitory efficacy (H460 cells; [1]): 0.09418 and 0.1351
- Inhibitory efficacy (H460 cells; [3]): 0.192 and 0.3038
- Inhibitory efficacy (H460 cells; [4]): 0.3527 and 0.3328
- IC50 (H460 cells; Homo sapiens): 34.1 ± 2.5 µM
- inhibition at 2 µM (H460 cells; [8]): 8.02%
- inhibition at 8 µM (H460 cells; [9]): 25.9%
- inhibition at 16 µM (H460 cells; [10]): 30.4%
- IC50 (PC-9 cells; Homo sapiens): > 100 µM
- IC50 (wild-type EGFR): 10.7 µM
- inhibition at 30 pM (wild-type EGFR; concentration 0.03 nM, one value per replicate column): 3.1%
- Inhibition (wild-type EGFR; concentration 0.03 nM, one value per replicate column, 3e-05 µM): 4.587
- inhibition at 0.0003 µM (wild-type EGFR; concentration 0.3 nM, one value per replicate column): 5.16%
- Inhibition (wild-type EGFR; concentration 0.3 nM, one value per replicate column, 0.0003 µM): 5.242
- inhibition at 0.003 µM (wild-type EGFR; concentration 3 nM, one value per replicate column): 5.55%
- Inhibition (wild-type EGFR; concentration 3 nM, one value per replicate column, 0.003 µM): 6.684
- inhibition at 0.03 µM (wild-type EGFR; concentration 30 nM, one value per replicate column): 10.7%
- Inhibition (wild-type EGFR; concentration 30 nM, one value per replicate column, 0.03 µM): 8.781
- inhibition at 0.3 µM (wild-type EGFR; concentration 300 nM, one value per replicate column): 11.4%
- Inhibition (wild-type EGFR; concentration 300 nM, one value per replicate column, 0.3 µM): 9.699
- inhibition at 3 µM (wild-type EGFR; concentration 3000 nM, one value per replicate column): 22.2%
- Inhibition (wild-type EGFR; concentration 3000 nM, one value per replicate column, 3 µM): 18.3486
- inhibition at 30 µM (wild-type EGFR; concentration 30000 nM, one value per replicate column): 74.1%
- Inhibition (wild-type EGFR; concentration 30000 nM, one value per replicate column, 30 µM): 73.6566
- A450 (wild-type EGFR; concentration 0.0001 nM): 1.058 and 1.062
- A450 (wild-type EGFR; concentration 0.03 nM): 1.034 and 1.027
- A450 (wild-type EGFR; concentration 0.3 nM): 1.018 and 1.022
- A450 (wild-type EGFR; concentration 3 nM): 1.015 and 1.011
- A450 (wild-type EGFR; concentration 30 nM): 0.975 and 0.995
- A450 (wild-type EGFR; concentration 300 nM): 0.97 and 0.988
- A450 (wild-type EGFR; concentration 3000 nM): 0.886 and 0.922
- A450 (wild-type EGFR; concentration 30000 nM): 0.484 and 0.5
